ChEMBL document CHEMBL1129318, “Structure-activity relationships of boronic acid inhibitors of dipeptidyl peptidase IV. 1. Variation of the P2 position of Xaa-boroPro dipeptides” (J Med Chem, 1996)

How the values were obtained:
Dipeptidyl peptidase 4 = Dipeptidyl peptidase 4 (Homo sapiens, UniProt P27487); assay: In vitro for inhibition of Dipeptidylpeptidase IV.
Dipeptidyl peptidase 2 = Dipeptidyl peptidase 2 (Homo sapiens, UniProt Q9UHL4); assay: Compound was tested in vitro for inhibition of Dipeptidylpeptidase II
Prolyl endopeptidase = molecular target: T1, Prolyl endopeptidase (Homo sapiens, UniProt P48147); assay: (§1) Compound was tested in vitro for inhibition of Prolyl endopeptidase
T1 sequence (P48147 whole entry): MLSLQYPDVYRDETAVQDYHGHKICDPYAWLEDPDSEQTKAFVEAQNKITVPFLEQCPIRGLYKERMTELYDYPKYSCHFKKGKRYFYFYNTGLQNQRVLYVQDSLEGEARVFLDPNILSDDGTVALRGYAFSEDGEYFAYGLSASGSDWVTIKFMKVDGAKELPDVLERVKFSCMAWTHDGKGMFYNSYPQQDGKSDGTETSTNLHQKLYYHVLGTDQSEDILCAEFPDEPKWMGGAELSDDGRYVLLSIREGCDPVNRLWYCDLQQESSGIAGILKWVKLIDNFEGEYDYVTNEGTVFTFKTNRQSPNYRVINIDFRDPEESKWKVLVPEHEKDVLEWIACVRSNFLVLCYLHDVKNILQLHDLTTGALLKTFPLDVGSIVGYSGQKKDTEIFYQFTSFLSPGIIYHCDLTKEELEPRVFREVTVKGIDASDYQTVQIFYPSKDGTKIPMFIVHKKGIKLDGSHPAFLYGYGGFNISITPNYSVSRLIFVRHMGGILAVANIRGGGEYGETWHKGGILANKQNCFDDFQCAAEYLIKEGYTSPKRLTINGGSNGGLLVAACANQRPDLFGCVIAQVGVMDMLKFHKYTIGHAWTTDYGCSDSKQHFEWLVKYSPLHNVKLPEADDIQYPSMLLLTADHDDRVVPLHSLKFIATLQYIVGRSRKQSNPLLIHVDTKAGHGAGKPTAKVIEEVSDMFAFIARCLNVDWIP

[1] = molecular target: T2, Prolyl endopeptidase (Homo sapiens) (UniProt P48147); assay: as §1; conditions: concentration not given here
T2 sequence (whole entry): T1 sequence (P48147 whole entry)

Chain of Dipeptidyl peptidase 4 (P27487 whole entry): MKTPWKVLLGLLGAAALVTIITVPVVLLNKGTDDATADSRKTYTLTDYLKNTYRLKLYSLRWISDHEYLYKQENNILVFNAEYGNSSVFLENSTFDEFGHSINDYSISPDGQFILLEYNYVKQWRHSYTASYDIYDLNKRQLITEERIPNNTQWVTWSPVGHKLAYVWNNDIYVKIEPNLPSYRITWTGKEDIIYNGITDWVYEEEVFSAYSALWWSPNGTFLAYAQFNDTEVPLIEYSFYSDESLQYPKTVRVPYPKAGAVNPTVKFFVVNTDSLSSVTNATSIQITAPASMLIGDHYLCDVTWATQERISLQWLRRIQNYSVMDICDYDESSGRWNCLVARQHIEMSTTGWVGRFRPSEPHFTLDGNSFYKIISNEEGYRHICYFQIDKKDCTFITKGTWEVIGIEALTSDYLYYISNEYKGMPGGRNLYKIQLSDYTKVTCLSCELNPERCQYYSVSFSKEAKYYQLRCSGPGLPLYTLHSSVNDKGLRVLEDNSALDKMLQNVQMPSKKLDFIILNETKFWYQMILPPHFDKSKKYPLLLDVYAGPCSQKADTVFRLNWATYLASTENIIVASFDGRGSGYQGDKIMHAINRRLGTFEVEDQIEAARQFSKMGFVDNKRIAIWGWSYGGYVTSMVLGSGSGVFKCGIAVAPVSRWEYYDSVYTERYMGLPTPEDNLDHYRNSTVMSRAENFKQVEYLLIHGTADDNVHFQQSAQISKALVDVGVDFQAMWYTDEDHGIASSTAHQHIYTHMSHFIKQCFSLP

| Structure (SMILES) | IC50 (Dipeptidyl peptidase 4) | also measured |
| --- | --- | --- |
| NCC(=O)N1CCC[C@H]1B(O)O | 16000 nM | – |
| CC(C)C[C@H](N)C(=O)N1CCC[C@H]1B(O)O | 44 nM | – |
| NCCCC[C@H](N)C(=O)N1CCC[C@H]1B(O)O | 95 nM | – |
| C[C@H](N)C(=O)N1CCC[C@H]1B(O)O | – | IC50 (Dipeptidyl peptidase 2): 60 nM |
| C[C@@H](O)[C@H](N)C(=O)N1CCC[C@H]1B(O)O | 190 nM | IC50 (Dipeptidyl peptidase 2): 730 nM; IC50 (Prolyl endopeptidase): 6000 nM |
| CC(C)(N)C(=O)N1CCC[C@H]1B(O)O | 30000 nM | – |
| N[C@@H](Cc1c[nH]cn1)C(=O)N1CCC[C@H]1B(O)O | 17000 nM | – |
| N[C@@H](Cc1ccccc1)C(=O)N1CCC[C@H]1B(O)O | 70 nM | – |
| CC[C@H](C)[C@H](N)C(=O)N1CCC[C@H]1B(O)O | 25 nM | – |
| N[C@H](C(=O)N1CCC[C@H]1B(O)O)c1ccccc1 | 63 nM | – |
| O=C([C@@H]1CCCN1)N1CCC[C@H]1B(O)O | 20 nM | inhibition [1]: 63%; IC50 (Dipeptidyl peptidase 2): 770 nM |
| O=C([C@@H]1CCN1)N1CCC[C@H]1B(O)O | 250 nM | – |
| N[C@@H](Cc1ccc(O)cc1)C(=O)N1CCC[C@H]1B(O)O | 32 nM | – |
